Experimental data: patent US11344603B2, “Cytokine modulation” (AUCKLAND UNISERVICES LIMITED, priority 2017, dated 2022)
Entries after “also recorded” stand apart in the source; their conditions may differ.

What was measured:
ARPE-19 cells [1] = experiment: Cytokine and chemokine measurement by Cytometric Bead Array in ARPE-19 incubation medium; assay type: cell-based, human
Description: (§1) Human adult retinal pigmented epithelial cells (ARPE-19; American Type Culture Collection, Manassas, Va.) were cultured in Dulbecco's Modified Eagle Medium Nutrient Mixture F-12 medium (DMEM-F12; Thermofisher Scientific Inc., USA) supplemented with 10% foetal bovine serum (FBS; Invitrogen) and a 1× antibiotics and antimycotics mixture (AA, 100× stock) at 37° C. in a humidified 5% C02 incubator. Cells were grown in T75 flasks and the medium was changed twice per week until confluent and ready for experimentation.
(§2) At passage 6-12, cells were plated at 2.5×10^5 cells/mL in 8-well chamber slides for immunohistochemical studies or 24-well plates for ATP release assay and cytometric bead array analysis. Once confluent, the culture medium was changed to treatments in serum-free DMEM-F12 containing 1×AA. Some cultures were challenged with 15 mM glucose (High glucose (high glucose) group), a combination of pro-inflammatory cytokines 10 ng/mL TNF-α (Peprotech, USA) and 10 ng/mL IL-1β (Peprotech, USA) (Cytokines group), or a combination of high glucose, 10 ng/mL TNF-α and 10 ng/mL IL-1β (high glucose+Cytokines group). The untreated group received a medium change with no additional treatments (Basal group). All assessments were carried out 24 h post-treatment.
(§3) Peptide5 (H-Val-Asp-Cys-Phe-Leu-Ser-Arg-Pro-Thr-Glu-Lys-Thr-OH (SEQ ID NO: 1); China Peptides, China) was administered to cells challenged with high glucose and pro-inflammatory cytokines. Concentration-dependent effects were studied at 5, 10, 25 and 50 μM of […] after 24 h. […] O'Carroll, S J, et al. Connexin43 mimetic peptides reduce swelling, astrogliosis, and neuronal cell death after spinal cord injury. Cell communication & adhesion, 15:27-42 (2008).
Soluble cytokines and chemokines in the ARPE-19 incubation medium were measured simultaneously using multiplexed bead-based immunoassays, Cytometric Bead Array (CBA, BD Biosciences, USA). Three tests of 50 μL volume was taken from duplicate cultures in 24-well plates after 24 h and transferred into a 96-well plate to be used for the CBA assay. The analysis included six tests per group. The assay was conducted according to the manufacturer's instructions. Briefly, a ten-point standard curve ranging from 0 to 5000 pg/mL for each cytokine was prepared using the cytokine standard provided in each kit. The cytokines measured were human soluble CD54 (sICAM-1, cat #560269, BD Biosciences, USA), IL-6 (cat #558276), IL-8 (cat #558227), and MCP-1 (cat #558287). Samples and cytokine standards were incubated in the capture bead mixture for 1 h and Phycoerythrin (PE)-conjugated antibodies against each cytokine were added to the sample-bead mixture for 2 h incubation at room temperature. All buffers used were from the CBA human soluble protein master buffer kit (cat #558265, BD Biosciences, USA). Beads were washed and analysed using an Accuri C6 flow cytometer (BD Biosciences, USA). Mean fluorescence intensity for each bead cluster was converted into cytokine concentrations based on the ten-point standard curve using FCAP Array™ software (BD version 3.1) as described previously (O'Carroll et al., 2015).

ARPE-19 cells [2] = experiment: VEGF secretion by ARPE-19 cells; assay type: cell-based, human; conditions: for VEGF release: high glucose + cytokines + Peptagon, versus basal
Description: as §1, §2, §3

[3] = tested on: NLRP3 inflammasome complex; experiment: Immunohistochemical labelling and quantification of NLRP3 inflammasome complexes; assay type: cell-based, human; conditions: 24 h
Description: At passage 6-12, cells were plated at 2.5×10^5 cells/mL in 8-well chamber slides for immunohistochemical studies or 24-well plates for ATP release assay and cytometric bead array analysis. Once confluent, the culture medium was changed to treatments in serum-free DMEM-F12 containing 1×AA. Some cultures were challenged with 15 mM glucose (High glucose (high glucose) group), a combination of pro-inflammatory cytokines 10 ng/mL TNF-α (Peprotech, USA) and 10 ng/mL IL-1β (Peprotech, USA) (Cytokines group), or a combination of high glucose, 10 ng/mL TNF-α and 10 ng/mL IL-1β (high glucose+Cytokines group). The untreated group received a medium change with no additional treatments (Basal group). All assessments were carried out 24 h post-treatment. After 24 h of incubation in treatment media, cells were fixed with 4% paraformaldehyde for 10 min and permeabilised with 0.1% Triton X-100 in phosphate buffer saline (PBS) for 10 min. Cells were then incubated with mouse anti-NLRP3 (1:100; Abcam, USA) at 4° C. overnight followed by washing in PBS three times for 15 min. Goat anti-mouse Cy3 (1:500; Jackson Immuno Research, USA) secondary antibodies were applied to the slides and incubated at room temperature for 3 h. […] For NLRP3 immunohistochemical analysis, four images were analysed per well and the entire experiment was repeated three times. […] The number of NLPR3 spots were counted for each image.

ARPE-19 cells [4] = experiment: ATP release assay (ATPlite luminescence); assay type: cell-based, human; conditions: high glucose + cytokines, 24 h, compared to high glucose and cytokines
Description: as §1
At passage 6-12, cells were plated at 2.5×10^5 cells/mL in 8-well chamber slides for immunohistochemical studies or 24-well plates for ATP release assay and cytometric bead array analysis. Once confluent, the culture medium was changed to treatments in serum-free DMEM-F12 containing 1×AA. […]
After 24 h of incubation in treatment media, ATP release was measured in triplicates using 50 μL of culture medium taken from duplicate wells of 24-well plates. […] ATP released into the culture medium was measured using the ATPlite Luminescence ATP Detection Assay System as per manufacturer instructions (PerkinElmer, USA). ATP release (%) in Peptide5 treated cultures (treated group) were calculated relative to cells treated with high glucose and cytokines (injury group) using the formula: (OD490 of treated group−OD490 of injury group)/(OD490 of injury group)×100%.

connexin 43 hemichannels = conditions: cited from earlier work
[5] = molecular target: Cx43 carboxy-terminal domain (Rattus norvegicus, UniProt P08050); conditions: low pH conditions; Verma et al. 2009, 2010; cited from earlier work
[6] = 10 nM exogenous ATP alone, mean ± SD
[7] = high glucose + cytokines + Peptagon 25 μM + ATP 10 nM, 24 h
[8] = high glucose + cytokines (10 ng/mL TNF-α, 10 ng/mL IL-1β), Peptagon 5, 10, 25, 50 μM, 24 h
[9] = high glucose + cytokines, 5, 10, 25, 50 μM, 24 h
[10] = high glucose + cytokines, Peptagon 25 μM, 24 h

Cx43 carboxy-terminal domain, sequence (P08050 whole entry, the tested form may be a part): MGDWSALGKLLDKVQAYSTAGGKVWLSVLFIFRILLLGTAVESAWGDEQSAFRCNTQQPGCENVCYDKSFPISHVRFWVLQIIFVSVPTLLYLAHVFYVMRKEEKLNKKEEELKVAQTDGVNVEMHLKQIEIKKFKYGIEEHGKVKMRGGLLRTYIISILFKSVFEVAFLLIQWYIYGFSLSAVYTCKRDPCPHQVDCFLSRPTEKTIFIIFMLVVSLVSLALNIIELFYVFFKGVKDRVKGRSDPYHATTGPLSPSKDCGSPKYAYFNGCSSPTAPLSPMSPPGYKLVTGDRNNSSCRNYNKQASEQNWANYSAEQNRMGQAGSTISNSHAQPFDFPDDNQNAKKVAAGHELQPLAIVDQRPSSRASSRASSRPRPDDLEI

## Nc1ncnc2c1ncn2[C@@H]1O[C@H](COP(=O)(O)OP(=O)(O)OP(=O)(O)O)[C@@H](O)[C@H]1O [ATP]
ARPE-19 cells [1]; 10 nM exogenous ATP alone
  change in IL-6 secretion compared to basal conditions: no change
  change in IL-8 secretion compared to basal conditions: no change
  change in sICAM-1 secretion compared to basal conditions: no change
ARPE-19 cells [1]; [6]
  IL-6 secretion in response to extracellular ATP: 8.22 ± 2.25 pg/mL
  IL-8 secretion in response to extracellular ATP: 67.70 ± 11.44 pg/mL
  MCP-1 secretion in response to extracellular ATP: 230.72 ± 37.08 pg/mL
  sICAM-1 secretion in response to extracellular ATP: 0 pg/mL
ARPE-19 cells [1]; 10 nM exogenous ATP alone, p≤0.0001
  change in MCP-1 release compared to basal conditions: decrease
ARPE-19 cells [1]; [7]
  effect of exogenous ATP on Peptagon-mediated protection against IL-6 release: back towards injury levels; also recorded: reversed
  effect of exogenous ATP on Peptagon-mediated protection against IL-8 release: back towards injury levels; also recorded: reversed
  effect of exogenous ATP on Peptagon-mediated protection against MCP-1 release: back towards injury levels; also recorded: reversed
  effect of exogenous ATP on Peptagon-mediated protection against sICAM-1 release: did not reach statistical significance
ARPE-19 cells [2]; 10 nM exogenous ATP alone
  change in VEGF secretion compared to basal conditions: no change
ARPE-19 cells [2]; [6]
  VEGF secretion in response to extracellular ATP: 56.62 ± 8.94 pg/mL
ARPE-19 cells [2]; high glucose + cytokines + Peptagon + exogenous ATP, 24 h
  effect of exogenous ATP on Peptagon hemichannel block effect on VEGF release: completely overrode; also recorded: negated hemichannel blocker-mediated protection against VEGF release
[3]; high glucose + cytokines + Peptagon + 10 nM ATP
  effect of exogenous ATP on Peptagon block of NLRP3 inflammasome assembly: overrode the hemichannel blocker treatment

## H-Val-Asp-Cys-Phe-Leu-Ser-Arg-Pro-Thr-Glu-Lys-Thr-OH (H-VDCFLSRPTEKT-OH) [Peptagon]
ARPE-19 cells [1]; [8]
  IL-6 secretion: significantly reduced
  IL-8 secretion: significantly reduced
  MCP-1 secretion: significantly reduced
  sICAM-1 secretion: significantly reduced; also recorded: decrease
ARPE-19 cells [1]; [9]
  concentration dependence of decrease in IL-6, IL-8 and MCP-1 secretion: slight trend towards a concentration-dependent decrease; also recorded: concentration-dependent manner
  concentration dependence of decrease in sICAM-1 secretion: all peptide concentrations had the same effect
ARPE-19 cells [1]; [10]
  IL-6 secretion: reduced secretion
  IL-8 secretion: reduced secretion
  MCP-1 secretion: reduced secretion
  sICAM-1 secretion: reduced secretion
ARPE-19 cells [2]; 24 h
  VEGF release: restored VEGF secretion back to basal levels
ARPE-19 cells [2]; 24 h, listed as Peptide5
  VEGF release: completely arrested
ARPE-19 cells [4]
  ATP release: significantly reduced
ARPE-19 cells [4]; listed as Peptide5
  ATP release: prevented
[3]; high glucose + inflammatory cytokines
  NLRP3 inflammasome assembly: blocked inflammasome assembly
Connexin 43 hemichannels; 5, 10, 25 and 50 μM, O'Carroll et al. 2008
  connexin 43 hemichannel block versus gap junction coupling: block connexin 43 hemichannels with minimal effect on gap junction cell-cell coupling
Connexin 43 hemichannels; O'Carroll et al., 2008
  dose dependent action on hemichannels and gap junctions: lower doses blocking gap junction hemichannel opening and higher doses uncoupling gap junctions between cells

## RRNYRRNY [linear peptide RRNYRRNY targeting the Cx43 carboxy-terminal domain]
[5]
  Cx43-based gap junction closure: prevent Cx43-based gap junction closure under low pH conditions
